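Values below derive from 48-hour exposures of cells grown in 96-well plates, with endpoints linearly interpolated between the two concentrations bracketing the appropriate inhibition level. TGI marks complete inhibition of growth.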

Holding throughout (experiment): DTP human tumour cell line panel, 48 h
Assay [1] has as its system A498 renal.
The test system of assay [2] is SK-MEL-2 melanoma.
Assay [3] deals with SW-620 colon.
Assay [4] has as its system HCC-2998 colon.
The test system of assay [5] is TK-10 renal.
Assay [6] relates to NCI-H522 lung.
In assay [7] the test system is UO-31 renal.
The test system of assay [8] is HS 578T breast.
Assay [9] relates to MDA-MB-435.
The subject of assay [10] is NCI/ADR-RES ovarian.

Regarding `CC(=O)c1ccc(NC(=O)/C(=N\NC(N)=O)C(C#N)CC(C)(C)C=O)cc1` (stereo not given), the total growth inhibition concentration (TGI) in assay [1], in assay [2], in assay [3], in assay [4], in assay [5] and in assay [6] was more than 100 µM in each case. In addition, in [7], the total growth inhibition concentration (TGI) was more than 100 µM.

`COCC(=O)[C@]1(O)Cc2c(O)c3c(c(O)c2[C@@H](OC2CC(N)C(O)C(C)O2)C1)C(=O)c1c(OC)cccc1C3=O` (stereo not given in full): the TGI came to 0.624 µM in assay [1]; 0.259 µM in assay [2]; 3.01 µM in assay [3]; 0.691 µM in [4]; 0.0892 µM in assay [8]; 13.8 µM in [5]. In addition, the results for the TGI in [6] and in [7] were 0.124 µM and 0.231 µM, respectively.

As for `CC(=O)O[C@H]1CC[C@@]2(C)C(=CC[C@@H]3[C@@H]2CC[C@]2(C)c4nc(N)c(C#N)cc4C[C@@H]32)C1`, the TGI was more than 100 µM in assay [1]; more than 100 µM in assay [2]; more than 100 µM in [3]; more than 100 µM in [4]; more than 100 µM in assay [9]; more than 95.2 µM in [8]. Besides, the TGI in assay [5], in assay [6] and in assay [7] was more than 100 µM each time.

`O=C(NN=C1CCCCC1)Nc1ccccc1Cl`: the TGI is 63.9 µM in assay [10]; 91.7 µM in assay [2]; more than 100 µM in assay [3]; more than 100 µM in assay [4]; 47.5 µM in [9]; more than 100 µM in assay [8]. The TGI in [5], in assay [6] and in assay [7] was more than 100 µM in each case.

Consider `O=C1C[C@H](c2ccccc2)C2(C(=O)c3ccccc3C2=O)[C@@H](c2ccccc2)C1`, for which the TGI in [10] is more than 100 µM; in assay [1], more than 100 µM; in assay [2] it was 69.3 µM; in [4] it was more than 100 µM; in [8] it was more than 100 µM; in assay [6], more than 100 µM. The compound also gave a total growth inhibition concentration (TGI) in assay [7] of more than 100 µM.

As to `Sc1nnc(-c2ccccc2Nc2ccccc2-c2nnc(S)n2-c2ccccc2)n1-c1ccccc1`, the TGI in assay [10] was more than 100 µM; in assay [2] it was 84.2 µM; in assay [3] it was 81.9 µM; in assay [4], more than 100 µM; in assay [9], 53 µM; in assay [5], more than 100 µM. In addition, the TGI in assay [6] is 81.8 µM; in assay [7] it was more than 100 µM.

For `Cc1ccc(NC(=O)c2cccc([N+](=O)[O-])c2O)c(C)c1`, the TGI was 63.5 µM in assay [1]; more than 100 µM in assay [2]; more than 100 µM in assay [3]; more than 100 µM in assay [4]; 70.1 µM in assay [6]; 35.1 µM in assay [7].

For the compound `c1ccc([C@H]2CN3CCSC3=N2)cc1`, the TGI in [10], in assay [1], in assay [2], in assay [3], in [4] and in assay [9] was more than 100 µM each time. Moreover, the total growth inhibition concentration (TGI) in [6] and in [7] was more than 100 µM each time.

On to `C=C1c2nc3ccccc3n2C=C(c2ccc(Cl)cc2)N1c1ccccc1`, for which the TGI in assay [10] is 29.8 µM; in [1], more than 100 µM; in assay [2], more than 100 µM; in assay [3], more than 100 µM; in assay [4], 26 µM; in assay [9], more than 100 µM. For the same compound, the TGI came out at 24.8 µM in [5], 18.5 µM in assay [6] and 32.9 µM in assay [7].

With `Cc1ccc([N+](=O)[O-])cc1S(=O)(=O)Nc1ccc(C2=NN(c3ccc([N+](=O)[O-])cc3[N+](=O)[O-])C(c3ccccc3O)C2)cc1` (stereo not given), the TGI is more than 100 µM in assay [10]; 59.4 µM in assay [2]; more than 100 µM in assay [3]; more than 100 µM in assay [9]; more than 100 µM in assay [8]; more than 100 µM in [5]. In addition, the TGI was 83.1 µM in assay [6] and more than 100 µM in [7].

Turning to `CC(/C=N/NC1=NCCCCN1)=N\NC1=NCCCCN1`, the TGI in assay [10], in [3], in assay [4], in [9], in assay [8] and in [5] was more than 100 µM in each case. Also, the TGI in [6] and in assay [7] was more than 100 µM throughout.

For `O=C(c1ccc(Cl)cc1)N(C(=S)N1CCN(c2ccccn2)CC1)c1ccccc1`, the TGI in assay [2], in assay [3], in assay [5], in assay [6] and in [7] was more than 100 µM throughout.

On to `Brc1cccc(C2(CCCC3(c4cccc(Br)n4)OCCO3)OCCO2)n1`, for which the TGI in [10], in [1], in assay [2], in [3], in [4] and in assay [9] was more than 100 µM in each case. For the same compound, the TGI in [5], in assay [6] and in assay [7] was more than 100 µM throughout.

For the compound `CC(C)(C)OC(=O)NC(CCCCNC(=O)OCc1ccccc1)C(=O)NC(CCCCNC(=O)OCc1ccccc1)C(=O)ON1C(=O)CCC1=O` (stereo not given), the TGI in assay [2], in assay [3], in assay [4], in assay [8], in [5] and in assay [7] was more than 100 µM in each case.

In the case of `Oc1[nH]c2ccccc2c1N=NC(=S)N1CCCCCC1`, the TGI in [10] was 1.42 µM; in assay [1], 2.3 µM; in [2] it was 5.72 µM; in [3] it was 9.23 µM; in [4], 7.1 µM; in [9], 3.71 µM. The TGI in [5] worked out at 7.86 µM; in [6] it was 12.6 µM; in [7], 3.08 µM.

For `CC(=O)OCC1OC(OCC2OC(N3C(=S)N[C@H]([C@@H](O)[C@H](O)[C@H](O)CO)[C@H]3O)C(OC(C)=O)C(OC(C)=O)C2OC(C)=O)C(OC(C)=O)C(OC(C)=O)C1OC(C)=O` (stereo not given in full), the concentration for total growth inhibition (TGI) in assay [10], in assay [1], in assay [2], in assay [3], in assay [4] and in assay [9] was more than 100 µM throughout. Also, the TGI in assay [5], in [6] and in assay [7] was more than 100 µM in each case.

The TGI is the concentration at which net growth stops. High values mean lower sensitivity of the cells, low ones greater sensitivity of the cells.
